Measured values from PMC7206119, “RIP1 inhibition blocks inflammatory diseases but not tumor growth or metastases” (Cell Death and Differentiation, 2019).

What was measured:
Test in all cases: biochemical
Design in all cases: Thermo Fisher SelectScreen kinase panel: Z'-LYTE and Adapta activity, LanthaScreen binding
[1] = biological target: DYRK1A (Homo sapiens, UniProt Q13627)
How it was run: (§1)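 Single-concentration panel: 10 µM GNE684 in KINOMEscan scanMAX binding (468 kinases) and in a 221-kinase panel run as Z'-LYTE/Adapta activity or LanthaScreen binding assays.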

[2] = biological target: ROCK2 (Homo sapiens, UniProt O75116)
How it was run: as §1

[3] = biological target: WEE1 (Homo sapiens, UniProt P30291)
How it was run: as §1

[4] = biological target: T1, PKA (Homo sapiens, UniProt P17612)
T1 construct: gene PRKACA
How it was run: as §1

[5] = biological target: T2, p38-delta (Homo sapiens, UniProt O15264)
T2 construct: gene MAPK13
How it was run: as §1

[6] = biological target: MUSK (Homo sapiens, UniProt O15146)
How it was run: as §1

[7] = biological target: T3, Ros (Homo sapiens, UniProt P08922)
T3 construct: gene ROS1
How it was run: as §1

[8] = biological target: T4, Ron (Homo sapiens, UniProt Q04912)
T4 construct: gene MST1R
How it was run: as §1

[9] = biological target: PASK (Homo sapiens, UniProt Q96RG2)
How it was run: as §1

[10] = biological target: T5, MYLK(smMLCK) (Homo sapiens, UniProt Q15746)
T5 construct: smooth muscle MLCK
How it was run: as §1

[11] = biological target: T6, CamKIV (Homo sapiens, UniProt Q16566)
T6 construct: gene CAMK4
How it was run: as §1

[12] = biological target: IGF1R (Homo sapiens, UniProt P08069)
How it was run: as §1

[13] = biological target: TBK1 (Homo sapiens, UniProt Q9UHD2)
How it was run: as §1

[14] = biological target: SRPK1 (Homo sapiens, UniProt Q96SB4)
How it was run: as §1

[15] = biological target: T7, MEKK2 (Homo sapiens, UniProt Q9Y2U5)
T7 construct: gene MAP3K2
How it was run: as §1

[16] = biological target: RET (Homo sapiens, UniProt P07949)
How it was run: as §1

[17] = biological target: T8, PI3K-G (Homo sapiens, UniProt P48736)
T8 construct: gene PIK3CG; p110gamma
How it was run: as §1

[18] = biological target: T9, CaMKII_beta (Homo sapiens, UniProt Q13554)
T9 construct: gene CAMK2B
How it was run: as §1

[19] = biological target: T10, ERK2 (Homo sapiens, UniProt P28482)
T10 construct: gene MAPK1
How it was run: as §1

[20] = biological target: T11, ZAK (Homo sapiens, UniProt Q9NYL2)
T11 construct: gene MAP3K20
How it was run: as §1

[21] = biological target: ROCK1 (Homo sapiens, UniProt Q13464)
How it was run: as §1

[22] = biological target: T12, PKC_beta1 (Homo sapiens, UniProt P05771)
T12 construct: gene PRKCB; isoform beta I
How it was run: as §1

[23] = biological target: T13, PhK_gamma1 (Homo sapiens, UniProt Q16816)
T13 construct: gene PHKG1
How it was run: as §1

T13 sequence (Q16816 whole entry): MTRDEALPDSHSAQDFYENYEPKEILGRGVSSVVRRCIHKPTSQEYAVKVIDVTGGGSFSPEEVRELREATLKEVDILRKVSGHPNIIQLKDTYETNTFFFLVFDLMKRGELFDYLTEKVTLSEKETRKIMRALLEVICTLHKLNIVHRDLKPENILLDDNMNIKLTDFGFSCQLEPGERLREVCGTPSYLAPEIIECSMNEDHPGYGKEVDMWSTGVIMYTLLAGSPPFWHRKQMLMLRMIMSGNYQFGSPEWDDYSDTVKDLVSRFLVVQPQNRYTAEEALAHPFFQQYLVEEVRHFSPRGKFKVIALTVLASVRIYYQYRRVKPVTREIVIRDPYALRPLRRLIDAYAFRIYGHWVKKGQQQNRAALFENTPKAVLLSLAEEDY
T9 sequence (Q13554 whole entry): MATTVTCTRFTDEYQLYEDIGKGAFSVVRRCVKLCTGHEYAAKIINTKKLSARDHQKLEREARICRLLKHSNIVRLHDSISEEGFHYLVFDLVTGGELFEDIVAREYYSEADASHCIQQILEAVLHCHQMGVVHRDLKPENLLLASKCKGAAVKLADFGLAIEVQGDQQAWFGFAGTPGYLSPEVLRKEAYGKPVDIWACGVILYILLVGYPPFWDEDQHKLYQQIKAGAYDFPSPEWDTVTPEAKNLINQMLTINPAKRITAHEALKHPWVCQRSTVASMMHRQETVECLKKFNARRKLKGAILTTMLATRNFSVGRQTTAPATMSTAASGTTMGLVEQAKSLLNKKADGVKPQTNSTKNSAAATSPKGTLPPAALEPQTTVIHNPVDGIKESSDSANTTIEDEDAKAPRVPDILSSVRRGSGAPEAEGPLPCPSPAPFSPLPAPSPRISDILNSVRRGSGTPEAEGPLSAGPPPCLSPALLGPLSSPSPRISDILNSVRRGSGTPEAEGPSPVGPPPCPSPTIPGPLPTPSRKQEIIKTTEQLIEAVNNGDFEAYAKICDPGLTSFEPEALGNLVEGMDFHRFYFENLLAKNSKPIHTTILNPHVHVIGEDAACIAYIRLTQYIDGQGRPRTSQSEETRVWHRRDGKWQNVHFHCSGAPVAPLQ
Sequence of PASK (Q96RG2 whole entry): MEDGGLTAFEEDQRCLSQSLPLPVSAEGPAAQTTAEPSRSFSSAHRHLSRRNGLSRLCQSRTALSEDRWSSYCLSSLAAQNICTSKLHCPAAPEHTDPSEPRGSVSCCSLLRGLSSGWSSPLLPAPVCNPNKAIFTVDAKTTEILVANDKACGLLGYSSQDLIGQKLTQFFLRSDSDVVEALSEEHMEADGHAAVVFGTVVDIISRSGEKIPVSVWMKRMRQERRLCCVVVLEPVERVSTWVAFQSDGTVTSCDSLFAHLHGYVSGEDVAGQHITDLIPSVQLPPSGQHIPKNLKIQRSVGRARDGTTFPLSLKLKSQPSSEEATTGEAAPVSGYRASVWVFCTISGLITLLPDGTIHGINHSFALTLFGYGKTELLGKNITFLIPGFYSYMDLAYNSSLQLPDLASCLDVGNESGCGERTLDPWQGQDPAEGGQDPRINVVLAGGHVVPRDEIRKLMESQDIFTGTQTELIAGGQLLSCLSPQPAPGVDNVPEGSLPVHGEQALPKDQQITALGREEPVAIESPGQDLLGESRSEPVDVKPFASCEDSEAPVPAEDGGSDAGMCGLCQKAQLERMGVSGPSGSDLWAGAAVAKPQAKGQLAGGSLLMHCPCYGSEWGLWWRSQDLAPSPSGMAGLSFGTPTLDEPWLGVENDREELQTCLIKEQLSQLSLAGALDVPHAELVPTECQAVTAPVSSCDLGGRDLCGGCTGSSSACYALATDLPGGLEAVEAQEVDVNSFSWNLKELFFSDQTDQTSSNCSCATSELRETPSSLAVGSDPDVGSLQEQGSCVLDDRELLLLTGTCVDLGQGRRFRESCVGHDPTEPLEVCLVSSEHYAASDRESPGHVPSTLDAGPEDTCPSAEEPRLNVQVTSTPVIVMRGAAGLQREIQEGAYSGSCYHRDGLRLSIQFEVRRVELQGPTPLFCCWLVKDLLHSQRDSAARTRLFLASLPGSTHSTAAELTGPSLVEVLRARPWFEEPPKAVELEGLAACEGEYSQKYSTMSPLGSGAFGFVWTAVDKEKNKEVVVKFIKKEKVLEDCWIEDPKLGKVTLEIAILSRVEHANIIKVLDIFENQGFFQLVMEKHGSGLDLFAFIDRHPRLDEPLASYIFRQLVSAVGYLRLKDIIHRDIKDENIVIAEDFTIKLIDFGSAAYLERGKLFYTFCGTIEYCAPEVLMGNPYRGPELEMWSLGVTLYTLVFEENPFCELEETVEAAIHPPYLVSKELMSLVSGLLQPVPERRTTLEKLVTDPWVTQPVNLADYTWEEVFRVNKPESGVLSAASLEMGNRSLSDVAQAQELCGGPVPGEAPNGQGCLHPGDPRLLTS
Sequence of ROCK1 (Q13464 whole entry): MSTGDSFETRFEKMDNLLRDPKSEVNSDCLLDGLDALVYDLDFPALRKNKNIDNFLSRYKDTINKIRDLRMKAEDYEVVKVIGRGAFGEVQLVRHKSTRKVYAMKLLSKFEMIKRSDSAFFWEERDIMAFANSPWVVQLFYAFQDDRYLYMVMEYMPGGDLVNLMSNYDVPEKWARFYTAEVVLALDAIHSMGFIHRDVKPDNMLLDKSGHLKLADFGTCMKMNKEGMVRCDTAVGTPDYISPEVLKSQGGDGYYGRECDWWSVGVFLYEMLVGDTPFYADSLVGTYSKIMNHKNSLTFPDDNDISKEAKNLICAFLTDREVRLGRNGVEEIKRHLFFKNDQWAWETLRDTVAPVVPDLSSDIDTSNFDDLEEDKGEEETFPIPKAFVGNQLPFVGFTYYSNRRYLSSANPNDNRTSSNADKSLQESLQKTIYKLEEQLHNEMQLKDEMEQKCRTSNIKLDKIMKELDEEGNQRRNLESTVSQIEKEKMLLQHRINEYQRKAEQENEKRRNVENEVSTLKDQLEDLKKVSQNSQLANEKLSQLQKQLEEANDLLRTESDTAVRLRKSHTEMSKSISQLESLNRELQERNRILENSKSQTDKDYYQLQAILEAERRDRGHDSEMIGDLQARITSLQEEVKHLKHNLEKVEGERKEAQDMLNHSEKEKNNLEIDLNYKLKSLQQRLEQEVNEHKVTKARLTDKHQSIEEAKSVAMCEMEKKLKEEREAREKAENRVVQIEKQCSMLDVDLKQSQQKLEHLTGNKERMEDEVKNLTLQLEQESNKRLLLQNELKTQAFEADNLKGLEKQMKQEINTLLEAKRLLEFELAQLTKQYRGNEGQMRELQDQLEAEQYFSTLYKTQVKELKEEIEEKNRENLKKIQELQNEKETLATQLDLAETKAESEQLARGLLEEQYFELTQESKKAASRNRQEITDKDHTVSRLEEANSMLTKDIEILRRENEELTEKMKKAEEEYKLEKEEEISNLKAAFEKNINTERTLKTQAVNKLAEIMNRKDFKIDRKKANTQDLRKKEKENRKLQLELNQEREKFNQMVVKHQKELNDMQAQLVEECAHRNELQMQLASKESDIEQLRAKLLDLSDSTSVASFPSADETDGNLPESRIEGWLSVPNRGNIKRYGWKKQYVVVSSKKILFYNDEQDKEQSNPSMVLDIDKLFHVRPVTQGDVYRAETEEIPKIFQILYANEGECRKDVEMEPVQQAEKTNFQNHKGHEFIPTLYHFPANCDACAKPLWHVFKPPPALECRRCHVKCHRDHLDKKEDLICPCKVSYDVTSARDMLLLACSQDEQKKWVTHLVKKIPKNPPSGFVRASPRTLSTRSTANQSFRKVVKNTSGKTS
T4 sequence (Q04912 whole entry): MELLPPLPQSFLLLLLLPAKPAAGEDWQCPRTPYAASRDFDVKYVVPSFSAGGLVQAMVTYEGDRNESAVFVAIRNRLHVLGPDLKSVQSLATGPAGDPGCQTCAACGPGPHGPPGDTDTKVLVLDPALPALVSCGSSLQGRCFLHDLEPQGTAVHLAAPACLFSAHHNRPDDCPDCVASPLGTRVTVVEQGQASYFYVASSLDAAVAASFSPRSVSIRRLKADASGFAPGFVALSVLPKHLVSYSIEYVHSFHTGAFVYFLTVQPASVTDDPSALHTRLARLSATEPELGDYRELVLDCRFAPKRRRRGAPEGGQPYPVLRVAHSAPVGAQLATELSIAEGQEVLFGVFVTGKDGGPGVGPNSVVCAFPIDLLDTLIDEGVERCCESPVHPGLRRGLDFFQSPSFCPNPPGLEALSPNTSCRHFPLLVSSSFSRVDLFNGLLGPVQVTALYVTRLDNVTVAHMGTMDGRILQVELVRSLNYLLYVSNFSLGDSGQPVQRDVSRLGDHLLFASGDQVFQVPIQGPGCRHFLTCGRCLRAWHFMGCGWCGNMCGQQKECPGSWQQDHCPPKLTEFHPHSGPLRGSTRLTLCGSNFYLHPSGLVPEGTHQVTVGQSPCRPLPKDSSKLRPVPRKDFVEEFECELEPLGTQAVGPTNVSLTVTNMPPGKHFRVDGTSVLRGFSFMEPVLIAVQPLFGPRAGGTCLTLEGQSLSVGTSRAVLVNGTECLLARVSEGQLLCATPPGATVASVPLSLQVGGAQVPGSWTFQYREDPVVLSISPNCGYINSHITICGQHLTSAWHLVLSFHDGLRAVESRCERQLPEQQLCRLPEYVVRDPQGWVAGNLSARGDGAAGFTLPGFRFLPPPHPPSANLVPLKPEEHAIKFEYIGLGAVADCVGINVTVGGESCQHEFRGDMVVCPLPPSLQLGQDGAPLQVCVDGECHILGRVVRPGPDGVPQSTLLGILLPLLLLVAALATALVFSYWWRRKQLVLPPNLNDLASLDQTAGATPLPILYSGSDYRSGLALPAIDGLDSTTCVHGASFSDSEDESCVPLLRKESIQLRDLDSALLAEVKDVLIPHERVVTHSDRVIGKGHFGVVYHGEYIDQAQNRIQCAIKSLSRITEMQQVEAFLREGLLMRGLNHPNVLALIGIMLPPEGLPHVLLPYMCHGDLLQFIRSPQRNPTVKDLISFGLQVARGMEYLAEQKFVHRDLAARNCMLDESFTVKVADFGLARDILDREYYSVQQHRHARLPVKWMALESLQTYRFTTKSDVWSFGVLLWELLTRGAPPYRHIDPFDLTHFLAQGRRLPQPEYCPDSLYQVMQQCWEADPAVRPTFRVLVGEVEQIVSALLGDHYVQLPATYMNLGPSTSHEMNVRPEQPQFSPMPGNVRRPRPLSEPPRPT

## COc1cc2c(cn1)N(C)C(=O)[C@@H](NC(=O)c1nc3n(n1)[C@H](c1ccccc1)CC3)CC2 [GNE684, (S)-N-((S)-7-methoxy-1-methyl-2-oxo-2,3,4,5-tetrahydro-1H-pyrido[3,4-b]azepin-3-yl)-5-phenyl-6,7-dihydro-5H-pyrrolo[1,2-b][1,2,4]triazole-2-carboxamide]
[1]
  inhibition at 10 µM: 2%
[2]
  inhibition at 10 µM: 1.5%
[3]
  inhibition at 10 µM: 0.5%
[4]
  inhibition at 10 µM: 1%
[5]
  inhibition at 10 µM: 3.5%
[6]
  inhibition at 10 µM: 14%
[7]
  inhibition at 10 µM: 3%
[8]
  inhibition at 10 µM: 4.5%
[9]
  inhibition at 10 µM: 4.5%
[10]
  inhibition at 10 µM: -5%
[11]
  inhibition at 10 µM: -1%
[12]
  inhibition at 10 µM: 5%
[13]
  inhibition at 10 µM: 1%
[14]
  inhibition at 10 µM: -0.5%
[15]
  inhibition at 10 µM: 7%
[16]
  inhibition at 10 µM: 4%
[17]
  inhibition at 10 µM: 13.5%
[18]
  inhibition at 10 µM: 2.5%
[19]
  inhibition at 10 µM: 1%
[20]
  inhibition at 10 µM: -0.5%
[21]
  inhibition at 10 µM: 1%
[22]
  inhibition at 10 µM: 3.5%
[23]
  inhibition at 10 µM: 0%
